Test results: patent US11524944B2, “2-phenylpyrimidine-4-carboxamides as AHR inhibitors” (Bayer Aktiengesellschaft, priority 2017, dated 2022)

Key:
Human AhR = target: T1, Human AhR (Homo sapiens, UniProt P35869); experiment: Transactivation assay in human cell line (in vitro assay 1): antagonism; type: cell-based; conditions: U87 glioblastoma cells, AHR inducible firefly luciferase reporter (DRE), 150 μM kynurenic acid, 20 hours
T1 construct: host or cells: U87 glioblastoma cells, stably transfected with a DRE firefly luciferase reporter and a constitutive renilla reporter
T1 sequence (P35869 11-848): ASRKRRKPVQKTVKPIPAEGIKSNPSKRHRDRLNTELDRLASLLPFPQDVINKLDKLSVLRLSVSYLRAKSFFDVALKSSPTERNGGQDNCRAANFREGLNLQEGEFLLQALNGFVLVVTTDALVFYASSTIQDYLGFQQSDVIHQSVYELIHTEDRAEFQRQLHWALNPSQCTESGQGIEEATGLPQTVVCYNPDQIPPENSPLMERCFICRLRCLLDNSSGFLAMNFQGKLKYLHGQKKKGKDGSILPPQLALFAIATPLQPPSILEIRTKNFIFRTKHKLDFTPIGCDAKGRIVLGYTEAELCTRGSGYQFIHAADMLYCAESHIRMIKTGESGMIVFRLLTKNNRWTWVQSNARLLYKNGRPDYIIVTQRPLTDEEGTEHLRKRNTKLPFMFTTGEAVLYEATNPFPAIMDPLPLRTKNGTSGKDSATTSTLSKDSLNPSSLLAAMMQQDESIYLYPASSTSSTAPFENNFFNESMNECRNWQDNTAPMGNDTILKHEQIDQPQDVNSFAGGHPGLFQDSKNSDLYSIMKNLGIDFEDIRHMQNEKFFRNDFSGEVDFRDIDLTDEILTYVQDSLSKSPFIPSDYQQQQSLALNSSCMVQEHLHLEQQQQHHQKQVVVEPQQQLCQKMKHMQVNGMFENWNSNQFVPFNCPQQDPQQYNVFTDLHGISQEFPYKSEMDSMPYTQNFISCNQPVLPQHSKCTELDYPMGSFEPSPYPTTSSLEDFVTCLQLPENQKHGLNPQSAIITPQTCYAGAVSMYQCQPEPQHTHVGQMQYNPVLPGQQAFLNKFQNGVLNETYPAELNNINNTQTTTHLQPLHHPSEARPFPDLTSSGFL
Procedure, shortened: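 U87 glioblastoma cells with endogenous AHR, stably transfected with a DRE-driven firefly luciferase reporter and a constitutive Renilla reporter. Cells prestimulated with kynurenic acid before compound addition. Dual luciferase read-out, with Renilla signal used to flag toxicity.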

Mouse AhR = target: T2, Mouse AhR (Mus musculus, UniProt P30561); experiment: Transactivation assay in mouse cell line (in vitro assay 2): antagonism; type: cell-based; conditions: Hepa 1c1c7 cells, AHR inducible firefly luciferase reporter (DRE), 200 μM kynurenic acid, 20 hours
T2 sequence (P30561 1-848 P471L/N533S/M589L): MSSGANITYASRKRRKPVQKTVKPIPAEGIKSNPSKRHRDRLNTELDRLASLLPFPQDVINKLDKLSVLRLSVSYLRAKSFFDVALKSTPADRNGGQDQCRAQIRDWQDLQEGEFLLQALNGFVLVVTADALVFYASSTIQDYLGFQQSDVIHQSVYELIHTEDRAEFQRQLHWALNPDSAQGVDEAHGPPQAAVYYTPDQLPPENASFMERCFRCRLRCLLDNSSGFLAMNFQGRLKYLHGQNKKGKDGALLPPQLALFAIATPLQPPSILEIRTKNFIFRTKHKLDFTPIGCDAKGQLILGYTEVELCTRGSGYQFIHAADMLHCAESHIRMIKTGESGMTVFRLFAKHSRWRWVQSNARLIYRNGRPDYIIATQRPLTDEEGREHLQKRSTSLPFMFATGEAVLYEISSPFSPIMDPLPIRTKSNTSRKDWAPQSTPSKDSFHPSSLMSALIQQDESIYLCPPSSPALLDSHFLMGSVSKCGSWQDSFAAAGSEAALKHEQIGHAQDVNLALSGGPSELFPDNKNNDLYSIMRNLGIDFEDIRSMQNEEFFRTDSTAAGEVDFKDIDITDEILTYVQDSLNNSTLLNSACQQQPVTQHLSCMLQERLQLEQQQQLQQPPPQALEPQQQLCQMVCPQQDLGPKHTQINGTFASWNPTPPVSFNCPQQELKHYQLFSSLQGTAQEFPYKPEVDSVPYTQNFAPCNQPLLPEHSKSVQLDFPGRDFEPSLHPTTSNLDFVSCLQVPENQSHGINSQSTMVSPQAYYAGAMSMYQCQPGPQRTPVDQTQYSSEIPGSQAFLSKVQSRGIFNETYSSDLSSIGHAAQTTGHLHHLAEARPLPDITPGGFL
Procedure: Examples were tested in selected biological assays one or more times. When tested more than once, data are reported as either average values or as median values, wherein • the average value, also referred to as the arithmetic mean value, represents the sum of the values obtained divided by the number of times tested, and • the median value represents the middle number of the group of values when ranked in ascending or descending order. If the number of values in the data set is odd, the median is the middle value. If the number of values in the data set is even, the median is the arithmetic mean of the two middle values.
Transactivation Assay in Mouse Cell Line (In Vitro Assay 2)
Transactivation assay was carried out in Hepa 1c1c7 cells (ATCC #CRL-2026) endogenously expressing AHR. In addition the cells were stably transfected with an AHR inducible firefly luciferase reporter gene construct that carried AHR-binding sites (DRE) in its promoter. Kynurenic acid is an endogenous AHR activating ligand and was used to prestimulate test cells prior to testing the antagonistic properties of compounds.
In Vitro Assay 2: Antagonism in Mouse Cell Line
Firefly luciferase activity was determined by the SteadyGlo Luciferase Assay System (Promega, #E2550).

Question: What does the source list for `C[C@@H](CO)NC(=O)c1cc(-c2ccc(Cl)cc2)nc(-c2ccc(Cl)cc2)n1` [Example 3, 2,6-Bis(4-chlorophenyl)-N-[(2S)-1-hydroxypropan-2-yl]pyrimidine-4-carboxamide]?
Answer: IC50 (Human AhR): 640 nM; IC50 (Mouse AhR): 532 nM

Question: Which results are given for `C[C@H](CO)NC(=O)c1cc(-c2ccc(OC(F)(F)F)cc2)nc(-c2cccc(F)c2)n1` [Example 6, 2-(3-Fluorophenyl)-N-[(2R)-1-hydroxypropan-2-yl]-6-[4-(trifluoromethoxy)phenyl]pyrimidine-4-carboxamide]?
Answer: IC50 (Human AhR): 12.2 nM; IC50 (Mouse AhR): 17.8 nM

Question: What does the source list for `C[C@@H](CO)NC(=O)c1cc(-c2ccc(OC(F)(F)F)cc2)nc(-c2ccc(C(F)F)cc2)n1` [Example 42, 2-[4-(difluoromethyl)phenyl]-N-[(2S)-1-hydroxypropan-2-yl]-6-[4-(trifluoromethoxy)phenyl]pyrimidine-4-carboxamide]?
Answer: IC50 (Human AhR): 1100 nM; IC50 (Mouse AhR): 1100 nM

Question: Which results are given for `COc1ccc(-c2nc(C(=O)NCC(C)(C)O)cc(-c3ccc(OC(F)(F)F)cc3)n2)cc1` [Example 15, N-(2-hydroxy-2-methylpropyl)-2-(4-methoxyphenyl)-6-[4-(trifluoromethoxy)phenyl]pyrimidine-4-carboxamide]?
Answer: IC50 (Human AhR): 390 nM; IC50 (Mouse AhR): > 20000 nM

Question: With `CC(C)(O)CNC(=O)c1cc(-c2ccc(OC(F)(F)F)cc2)nc(-c2ccc(Cl)cc2)n1` [Example 14, 2-(4-chlorophenyl)-N-(2-hydroxy-2-methylpropyl)-6-[4-(trifluoromethoxy)phenyl]pyrimidine-4-carboxamide] as the compound, how does the IC50 (Human AhR) read?
Answer: 234 nM

Question: What about the IC50 (Mouse AhR) of the same compound?
Answer: 148 nM
